Data taken from ChEMBL document CHEMBL5465560, “Selectivity Literature for EUbOPEN Chemogenomic Library” (2024).

Experiments:
[1] = biological target: Serine/threonine-protein kinase PAK 6 (Homo sapiens) (UniProt Q9NQU5); conditions: at 10 µM
[2] = biological target: 5'-AMP-activated protein kinase catalytic subunit alpha-2 (Homo sapiens) (UniProt P54646); conditions: at 10 µM
[3] = biological target: T1, Serine/threonine-protein kinase ULK3 (Homo sapiens) (UniProt Q6PHR2); conditions: at 10 µM
T1 sequence (whole entry): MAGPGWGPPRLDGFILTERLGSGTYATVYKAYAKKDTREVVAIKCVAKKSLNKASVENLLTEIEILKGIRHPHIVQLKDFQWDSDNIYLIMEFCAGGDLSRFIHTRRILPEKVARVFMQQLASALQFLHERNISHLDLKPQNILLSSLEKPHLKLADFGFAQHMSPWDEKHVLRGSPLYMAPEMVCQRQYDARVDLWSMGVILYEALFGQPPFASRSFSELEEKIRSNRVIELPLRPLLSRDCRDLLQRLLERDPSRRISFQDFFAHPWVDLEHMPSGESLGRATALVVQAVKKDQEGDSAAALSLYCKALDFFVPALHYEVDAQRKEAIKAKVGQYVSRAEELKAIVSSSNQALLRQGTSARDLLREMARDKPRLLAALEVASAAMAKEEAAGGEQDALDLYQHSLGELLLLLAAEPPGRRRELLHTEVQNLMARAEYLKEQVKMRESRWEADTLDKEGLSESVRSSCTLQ

[4] = biological target: Leucine-rich repeat serine/threonine-protein kinase 2 (Homo sapiens, UniProt Q5S007); conditions: at 10 µM
Chain of Leucine-rich repeat serine/threonine-protein kinase 2 (Q5S007 whole entry): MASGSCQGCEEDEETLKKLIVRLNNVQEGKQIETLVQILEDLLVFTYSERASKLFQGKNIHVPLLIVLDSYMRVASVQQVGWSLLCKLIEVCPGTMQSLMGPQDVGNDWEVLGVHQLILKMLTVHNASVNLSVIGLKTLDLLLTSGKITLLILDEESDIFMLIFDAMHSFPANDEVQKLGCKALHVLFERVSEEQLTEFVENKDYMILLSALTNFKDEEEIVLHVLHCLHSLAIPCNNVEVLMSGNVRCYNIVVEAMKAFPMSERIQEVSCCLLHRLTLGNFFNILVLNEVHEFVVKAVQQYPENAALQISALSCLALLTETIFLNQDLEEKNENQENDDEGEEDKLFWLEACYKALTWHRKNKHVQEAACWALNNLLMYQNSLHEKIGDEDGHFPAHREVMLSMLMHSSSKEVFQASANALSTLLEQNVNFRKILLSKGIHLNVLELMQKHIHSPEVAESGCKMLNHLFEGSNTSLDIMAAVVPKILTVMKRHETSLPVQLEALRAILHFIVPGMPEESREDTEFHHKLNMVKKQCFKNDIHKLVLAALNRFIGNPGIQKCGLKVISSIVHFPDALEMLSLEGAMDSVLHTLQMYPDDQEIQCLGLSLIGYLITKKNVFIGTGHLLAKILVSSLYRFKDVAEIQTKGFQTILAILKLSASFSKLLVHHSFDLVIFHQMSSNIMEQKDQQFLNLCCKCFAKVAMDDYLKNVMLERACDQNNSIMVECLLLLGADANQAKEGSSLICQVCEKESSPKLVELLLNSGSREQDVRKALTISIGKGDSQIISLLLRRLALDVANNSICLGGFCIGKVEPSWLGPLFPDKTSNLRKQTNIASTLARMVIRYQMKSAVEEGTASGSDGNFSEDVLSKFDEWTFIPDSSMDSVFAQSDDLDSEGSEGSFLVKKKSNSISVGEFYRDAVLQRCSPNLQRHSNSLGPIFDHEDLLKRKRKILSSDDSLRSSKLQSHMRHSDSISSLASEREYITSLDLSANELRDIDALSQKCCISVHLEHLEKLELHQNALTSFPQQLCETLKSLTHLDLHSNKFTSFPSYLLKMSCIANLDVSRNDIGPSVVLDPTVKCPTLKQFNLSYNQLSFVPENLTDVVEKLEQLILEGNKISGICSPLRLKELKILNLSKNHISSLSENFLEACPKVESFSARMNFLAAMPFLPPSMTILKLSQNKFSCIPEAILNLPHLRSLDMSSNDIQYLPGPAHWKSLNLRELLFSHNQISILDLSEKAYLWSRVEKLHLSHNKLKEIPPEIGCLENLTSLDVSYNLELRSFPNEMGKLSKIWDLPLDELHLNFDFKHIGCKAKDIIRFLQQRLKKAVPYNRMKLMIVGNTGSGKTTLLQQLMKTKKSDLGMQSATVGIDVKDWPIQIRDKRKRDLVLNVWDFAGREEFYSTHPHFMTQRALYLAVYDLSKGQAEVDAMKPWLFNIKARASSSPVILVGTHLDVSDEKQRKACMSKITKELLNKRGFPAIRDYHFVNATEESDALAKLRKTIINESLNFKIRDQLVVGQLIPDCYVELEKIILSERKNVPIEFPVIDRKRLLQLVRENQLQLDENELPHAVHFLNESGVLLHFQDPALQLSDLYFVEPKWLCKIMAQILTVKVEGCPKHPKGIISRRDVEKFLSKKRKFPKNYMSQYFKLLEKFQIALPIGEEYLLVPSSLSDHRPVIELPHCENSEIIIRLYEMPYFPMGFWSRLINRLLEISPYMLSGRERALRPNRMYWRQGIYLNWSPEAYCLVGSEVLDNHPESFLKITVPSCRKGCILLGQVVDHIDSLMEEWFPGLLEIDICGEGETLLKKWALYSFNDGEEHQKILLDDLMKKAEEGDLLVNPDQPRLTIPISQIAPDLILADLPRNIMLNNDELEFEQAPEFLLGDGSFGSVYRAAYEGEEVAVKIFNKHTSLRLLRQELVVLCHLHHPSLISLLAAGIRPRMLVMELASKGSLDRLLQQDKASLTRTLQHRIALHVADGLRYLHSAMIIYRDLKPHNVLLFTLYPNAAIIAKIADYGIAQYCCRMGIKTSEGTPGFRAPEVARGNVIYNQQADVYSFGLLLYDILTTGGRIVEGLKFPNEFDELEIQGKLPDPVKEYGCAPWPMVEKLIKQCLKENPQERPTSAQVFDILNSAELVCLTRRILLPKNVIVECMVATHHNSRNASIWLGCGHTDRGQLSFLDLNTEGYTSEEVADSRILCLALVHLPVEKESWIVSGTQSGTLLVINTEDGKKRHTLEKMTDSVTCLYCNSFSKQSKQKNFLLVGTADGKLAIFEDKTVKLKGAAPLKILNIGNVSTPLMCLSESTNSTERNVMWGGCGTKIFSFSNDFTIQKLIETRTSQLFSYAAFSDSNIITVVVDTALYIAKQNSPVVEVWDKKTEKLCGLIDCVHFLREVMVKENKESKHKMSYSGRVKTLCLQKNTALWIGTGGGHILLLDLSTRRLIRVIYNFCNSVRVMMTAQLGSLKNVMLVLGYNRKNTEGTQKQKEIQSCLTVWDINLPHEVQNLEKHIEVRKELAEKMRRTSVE

[5] = biological target: T2, Serine/threonine-protein kinase DCLK1 (Homo sapiens) (UniProt O15075); assay: Selectivity interaction (Ambit KINOMEscan and KiNATiv profiling in Jurkat cells) EUB0000090b DCLK1; format: cell-based; conditions: at 1 µM
T2 sequence (whole entry): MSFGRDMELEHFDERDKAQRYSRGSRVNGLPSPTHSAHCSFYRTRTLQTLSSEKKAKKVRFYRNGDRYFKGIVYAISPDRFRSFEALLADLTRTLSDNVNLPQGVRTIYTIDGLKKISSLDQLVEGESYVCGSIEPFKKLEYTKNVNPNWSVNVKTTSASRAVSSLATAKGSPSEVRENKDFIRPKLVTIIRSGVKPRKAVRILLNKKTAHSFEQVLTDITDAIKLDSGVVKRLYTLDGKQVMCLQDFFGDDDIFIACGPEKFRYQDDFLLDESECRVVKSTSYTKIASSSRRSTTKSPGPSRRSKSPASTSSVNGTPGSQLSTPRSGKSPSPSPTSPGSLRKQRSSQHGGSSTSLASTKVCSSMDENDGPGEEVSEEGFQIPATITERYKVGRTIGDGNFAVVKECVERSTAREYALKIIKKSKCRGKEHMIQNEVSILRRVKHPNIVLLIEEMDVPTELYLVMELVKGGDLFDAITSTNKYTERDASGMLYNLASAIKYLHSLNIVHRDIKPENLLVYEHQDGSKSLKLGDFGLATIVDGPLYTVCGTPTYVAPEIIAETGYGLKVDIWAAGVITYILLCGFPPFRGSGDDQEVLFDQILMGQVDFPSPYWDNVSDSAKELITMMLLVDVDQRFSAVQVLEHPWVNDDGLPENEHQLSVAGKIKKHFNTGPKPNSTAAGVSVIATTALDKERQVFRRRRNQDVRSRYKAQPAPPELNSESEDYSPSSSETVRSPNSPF

[6] = biological target: Serine/threonine-protein kinase PRP4 homolog (Homo sapiens) (UniProt Q13523); assay: Selectivity interaction (Ambit KINOMEscan and KiNATiv profiling in Jurkat cells) EUB0000090b PRPF4; format: cell-based; conditions: at 1 µM
[7] = biological target: Protein polybromo-1 (Homo sapiens) (UniProt Q86U86); assay: Selectivity interaction (Bromodomain panel (DSF asssay)) EUB0000270b PBRM1
[8] = biological target: Mitogen-activated protein kinase 8 (Homo sapiens, UniProt P45983); assay: Selectivity interaction (Kinase panel (literature)) EUB0001199aCl MAPK8; conditions: at 1 µM
Chain of Mitogen-activated protein kinase 8 (P45983 whole entry): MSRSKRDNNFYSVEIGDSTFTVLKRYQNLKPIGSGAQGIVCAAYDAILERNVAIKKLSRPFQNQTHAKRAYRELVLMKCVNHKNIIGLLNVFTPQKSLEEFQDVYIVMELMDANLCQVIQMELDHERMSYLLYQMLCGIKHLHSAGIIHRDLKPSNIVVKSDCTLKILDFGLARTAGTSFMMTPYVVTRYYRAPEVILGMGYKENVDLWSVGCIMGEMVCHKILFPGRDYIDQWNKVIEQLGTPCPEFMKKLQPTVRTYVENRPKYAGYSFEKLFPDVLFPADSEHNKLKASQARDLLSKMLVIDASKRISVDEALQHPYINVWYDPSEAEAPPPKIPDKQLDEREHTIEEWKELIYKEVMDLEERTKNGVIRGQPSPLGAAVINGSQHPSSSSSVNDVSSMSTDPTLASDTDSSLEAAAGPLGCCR

[9] = biological target: Sigma intracellular receptor 2 (Homo sapiens) (UniProt Q5BJF2); assay: Selectivity interaction (GPCR panel (PDSP screen)) EUB0001079a TMEM97; conditions: at 10 µM
Chain of Sigma intracellular receptor 2 (Homo sapiens) (Q5BJF2 whole entry): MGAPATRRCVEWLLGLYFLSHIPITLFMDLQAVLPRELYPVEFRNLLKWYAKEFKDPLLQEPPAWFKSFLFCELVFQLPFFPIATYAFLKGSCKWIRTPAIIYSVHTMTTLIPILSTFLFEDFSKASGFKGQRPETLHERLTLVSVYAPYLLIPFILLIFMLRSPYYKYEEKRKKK

[10] = biological target: Activin receptor type-2A (Homo sapiens) (UniProt P27037); assay: Selectivity interaction (KinomeScan (DiscoverX)) EUB0000092b ACVR2A; conditions: at 10 µM
[11] = biological target: SRSF protein kinase 2 (Homo sapiens) (UniProt P78362); assay: Selectivity interaction (Upstate Kinase Profiler service (Millipore)) EUB0000056c SRPK2; conditions: at 1 µM
[12] = biological target: T3, Serine/threonine-protein kinase NLK (Homo sapiens) (UniProt Q9UBE8); assay: Selectivity interaction (Upstate Kinase Profiler service (Millipore)) EUB0000056c NLK; conditions: at 1 µM
T3 sequence (whole entry): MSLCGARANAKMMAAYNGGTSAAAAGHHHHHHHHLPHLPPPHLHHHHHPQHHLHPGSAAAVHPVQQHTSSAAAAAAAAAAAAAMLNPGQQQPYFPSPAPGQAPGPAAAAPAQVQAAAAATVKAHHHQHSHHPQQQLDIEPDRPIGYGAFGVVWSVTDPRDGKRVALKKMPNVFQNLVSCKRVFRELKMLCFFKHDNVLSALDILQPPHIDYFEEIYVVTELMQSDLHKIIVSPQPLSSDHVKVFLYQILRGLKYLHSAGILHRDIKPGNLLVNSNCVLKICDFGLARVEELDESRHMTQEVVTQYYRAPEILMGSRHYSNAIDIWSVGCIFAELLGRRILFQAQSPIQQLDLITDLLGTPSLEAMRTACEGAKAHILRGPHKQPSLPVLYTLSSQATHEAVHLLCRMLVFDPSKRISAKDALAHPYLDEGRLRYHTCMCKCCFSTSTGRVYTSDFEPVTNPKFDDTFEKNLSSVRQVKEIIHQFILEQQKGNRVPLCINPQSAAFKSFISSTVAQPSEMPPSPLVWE

[13] = biological target: Cyclin-dependent kinase 15 (Homo sapiens) (UniProt Q96Q40); assay: Selectivity interaction (KinomeScan (DiscoverX)) EUB0000045b CDK15
Chain of Cyclin-dependent kinase 15 (Homo sapiens) (Q96Q40 whole entry): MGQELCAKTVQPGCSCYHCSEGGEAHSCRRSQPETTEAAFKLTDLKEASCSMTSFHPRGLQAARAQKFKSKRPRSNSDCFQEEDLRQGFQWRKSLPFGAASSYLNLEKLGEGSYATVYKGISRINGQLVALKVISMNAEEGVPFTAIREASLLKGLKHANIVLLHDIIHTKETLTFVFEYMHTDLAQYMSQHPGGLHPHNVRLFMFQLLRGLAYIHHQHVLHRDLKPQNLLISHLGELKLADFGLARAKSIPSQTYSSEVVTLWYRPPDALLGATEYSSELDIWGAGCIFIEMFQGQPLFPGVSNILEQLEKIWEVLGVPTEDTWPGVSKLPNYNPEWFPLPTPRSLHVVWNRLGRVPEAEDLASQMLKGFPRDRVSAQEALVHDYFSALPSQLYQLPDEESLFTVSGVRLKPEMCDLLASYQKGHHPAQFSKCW

[14] = biological target: High affinity nerve growth factor receptor (Homo sapiens, UniProt P04629); assay: Selectivity interaction (KinomeScan (DiscoverX)) EUB0000618a NTRK1; conditions: at 10 µM
[15] = biological target: Serine/threonine-protein kinase PLK2 (Homo sapiens, UniProt Q9NYY3); assay: Selectivity interaction (KinomeScan (DiscoverX)) EUB0000607a PLK2; conditions: at 10 µM
[16] = biological target: Histone-lysine N-methyltransferase PRDM9 (Homo sapiens) (UniProt Q9NQV7); assay: Selectivity interaction (Methyltransferase screen (Scintillation proximity assays)) EUB0000255b PRDM9
Chain of Histone-lysine N-methyltransferase PRDM9 (Homo sapiens) (Q9NQV7 whole entry): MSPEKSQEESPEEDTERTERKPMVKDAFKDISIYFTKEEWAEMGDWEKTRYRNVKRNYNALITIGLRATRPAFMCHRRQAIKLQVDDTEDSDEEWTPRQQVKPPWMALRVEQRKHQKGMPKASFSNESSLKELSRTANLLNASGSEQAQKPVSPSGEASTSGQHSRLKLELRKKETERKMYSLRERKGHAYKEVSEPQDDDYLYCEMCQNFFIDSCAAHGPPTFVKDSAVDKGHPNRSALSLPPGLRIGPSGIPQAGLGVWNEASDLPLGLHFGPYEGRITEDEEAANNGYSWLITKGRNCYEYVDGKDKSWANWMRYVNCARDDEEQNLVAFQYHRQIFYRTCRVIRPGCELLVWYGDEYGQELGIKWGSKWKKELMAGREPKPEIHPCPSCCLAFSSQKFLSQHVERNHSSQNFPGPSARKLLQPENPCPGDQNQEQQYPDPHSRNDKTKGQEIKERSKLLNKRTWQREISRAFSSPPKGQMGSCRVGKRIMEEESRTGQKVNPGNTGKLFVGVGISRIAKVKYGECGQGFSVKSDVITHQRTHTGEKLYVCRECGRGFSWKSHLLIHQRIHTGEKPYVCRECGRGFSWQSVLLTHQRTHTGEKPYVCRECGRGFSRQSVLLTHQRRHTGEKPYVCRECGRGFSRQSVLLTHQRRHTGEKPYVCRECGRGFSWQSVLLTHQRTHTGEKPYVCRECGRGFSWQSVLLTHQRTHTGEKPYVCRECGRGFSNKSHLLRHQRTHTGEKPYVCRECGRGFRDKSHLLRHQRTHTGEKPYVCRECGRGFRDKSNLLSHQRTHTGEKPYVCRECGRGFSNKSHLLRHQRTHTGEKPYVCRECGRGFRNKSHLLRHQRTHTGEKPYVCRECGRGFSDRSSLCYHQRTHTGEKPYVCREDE

[17] = biological target: 5-hydroxytryptamine receptor 1B (Homo sapiens) (UniProt P28222); assay: Selectivity interaction (Panel of kinases, GPCRs, ion channels and transporters (enzymatic assay)) EUB0000223bCl HTR1B
Chain of 5-hydroxytryptamine receptor 1B (Homo sapiens) (P28222 whole entry): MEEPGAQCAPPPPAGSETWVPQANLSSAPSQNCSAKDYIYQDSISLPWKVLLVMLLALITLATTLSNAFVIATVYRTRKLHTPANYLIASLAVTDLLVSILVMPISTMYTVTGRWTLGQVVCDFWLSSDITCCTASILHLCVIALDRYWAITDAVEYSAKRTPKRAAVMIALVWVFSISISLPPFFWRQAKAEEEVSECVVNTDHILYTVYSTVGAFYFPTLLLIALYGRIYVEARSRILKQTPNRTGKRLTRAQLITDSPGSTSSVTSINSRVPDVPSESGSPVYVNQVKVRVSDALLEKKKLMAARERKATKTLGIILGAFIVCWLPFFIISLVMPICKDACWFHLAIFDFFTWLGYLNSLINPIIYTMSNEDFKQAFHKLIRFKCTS

## Cc1cc([C@@H](C)Nc2ccccc2C(=O)O)c2nc(N3CCOCC3)cc(=O)n2c1 [AZD-6482]
[1]
  % of control: 99%
[2]
  % of control: 88%
[3]
  % of control: 98%
[4]
  % of control: 100%

## CN(C)C/C=C/C(=O)Nc1ccc(C(=O)N2CCCC(Nc3ncc(Cl)c(-c4c[nH]c5ccccc45)n3)C2)cc1 (centres undefined)
[5]
  % of control: 58%
[6]
  % of control: 74%

## Cc1cc(CN)cc(C)c1-c1ncn(C)c1-c1cncn1C
[7]
  dTM: -1.53 K

## CN1Cc2nccc(-c3cn(C)nc3-c3ccc(F)cc3)c2C1=O
[8]
  % of inhibition: -2%

## Nc1cnc(N2CCc3cc(S(=O)(=O)Nc4c(F)cc(Cl)cc4F)cc(N4CCCC4=O)c32)nc1 [TP-020n]
[9]
  % of inhibition: -12%

## CCC(=O)N1CCN(c2ccc(-n3c(=O)ccc4cnc5ccc(-c6cnc7ccccc7c6)cc5c43)cc2C(F)(F)F)CC1
[10]
  % of control: 47%

## Cc1ccc(-c2ccc3c(ccc4sc5c(c43)NC[C@@H](C)NC5=O)n2)cn1
[11]
  % of inhibition: 33%
[12]
  % of inhibition: 25%

## C=CC(=O)Nc1cc(-n2c(=O)ccc3cnc4ccc(-c5ccc(NS(C)(=O)=O)cc5)cc4c32)ccc1C
[13]; at 1 µM
  % of control: 100%
[13]; at 10 µM
  % of control: 72%

## O[C@H]1CC[C@H](Nc2ncc3nc(Nc4c(F)cc(F)cc4F)n([C@H]4CCOC4)c3n2)CC1
[14]
  % of control: 75%

## CNC(=O)Nc1ccc(-c2nc(N3CC4CCC(C3)O4)c3cnn(C4CCC5(CC4)OCCO5)c3n2)cc1
[15]
  % of control: 100%

## COCCN1CCC(c2cc(CN(C)C(=O)c3cccc(Oc4ccccc4)c3)ccn2)CC1
[16]; at 1 µM
  % activity: > 95%
[16]; at 10 µM
  % activity: > 90%

## COc1cc(C(=O)N2CC[C@@H](O)[C@@H](N)C2)cc2nc(-c3cc4ccccc4n3CC3CC3)n(C)c12
[17]
  pXC50: < 4.5 M
